According to US20110111400A1, “METHOD FOR ENHANCING CHEMICAL SENSITIVITY OR RADIOSENSITIVITY OF CANCER CELLS BY INHIBITING EXPRESSION OF TSPYL5” (Korea Atomic Energy Research Institute, priority 2009, published 2011):

What was measured:
TSPYL5 gene [1] = assay: RT-PCR of TSPYL5 expression level after siRNA transduction, A549; format: cell-based, human; conditions: A549 cells, 40~80 nM RNAi, compared to siControl
Method: (§1) In order to compare the expression levels of TSPYL5 in lung cancer cell lines A549, H460, and H1299, reverse transcription polymerase chain reaction (RT-PCR) was performed. The RT-PCR was performed in the following manner: a mixture of 10 mM dNTPs, 5×RT buffer, 0.5 μg/μl oligo dT, addition of each of 4 μg of heat denaturated (70° C., 10 min) total RNA of lung cancer cell lines H460, A549, and H1299, and 200 U/μl M-MLV RTase, 0.02% diethyl pyrocarbonate (DEPC)-treated sterilized water to a final volume of 20 μl, followed by reaction at 45° C. for 30 min. Next, the mixture was heated to 94° C. for 5 min, and then snap-cooled on ice to deactivate the M-MLV RTase. 1 μl of the cDNA synthesized by the method was mixed with 10× buffer (MgCl2 free), 2.5 mM dNTPs, 10× MgCl2, and Taq DNA polymerase. 10 pmol of primer for TSPYL5 or β-actin was added to the mixture and amplified under the following conditions. Then, for TSPYL5 primer, EcoRI/Forward: 5′-[…]-3′ represented by SEQ ID No: 3 as a forward primer and EcoRI/reverse: 5′-CCGGAATTCTC AGTTGGATTGGCTCACCCC-3′ represented by SEQ ID NO: 4 as a reverse primer were used. Pre-denaturation at 94° C. for 5 min, denaturation at 94° C. for 1 min, annealing at 60° C. for 1.5 min, cycles of elongation at 72° C. for 1 min were performed, followed by post-elongation at 72° C. for 10 min. […]

TSPYL5 gene [2] = assay: RT-PCR of TSPYL5 expression level after siRNA transduction, H1299; format: cell-based, human; conditions: H1299 cells, 40~80 nM RNAi, compared to siControl
Method: as §1

C2-131714: 25mer TSPYL5 stealth-RNAi duplex oligoribonucleotide, SEQ ID Nos: 10 and 11 (chain 1 AAAGGUAGAACUGCAAGGGAUUGGG; chain 2 CCCAAUCCCUUGCAGUUCUACCUUU; Invitrogen Stealth RNAi, modifications not given here)
expression levels of TSPYL5 (TSPYL5 gene [1]): reduced the most effectively
expression levels of TSPYL5 (TSPYL5 gene [2]): reduced the most effectively
